Reference: ChEMBL document CHEMBL4020826 (J Med Chem, 2018)

Experiments:
[1] = biological target: T1, Metabotropic glutamate receptor 3 (Homo sapiens, UniProt Q14832)
Description: Agonist activity at human mGlu3 receptor expressed in HEK cells assessed as inhibition of forskolin-stimulated cAMP formation after 20 mins by HTRF assay

[2] = biological target: T1, Metabotropic glutamate receptor 3; assay: biochemical
Description: Displacement of [3H]-LY459477 from recombinant human mGlu3 receptor expressed in HEK cell membranes after 90 mins by liquid scintillation counting

[3] = biological target: T2, Metabotropic glutamate receptor 2 (Homo sapiens, UniProt Q14416); assay: Displacement of [3H]-LY459477 from recombinant human mGlu2 receptor expressed in HEK cell membranes after 90 mins by liquid scintillation counting
[4] = biological target: T2, Metabotropic glutamate receptor 2; assay: Agonist activity at human mGlu2 receptor expressed in HEK cells assessed as inhibition of forskolin-stimulated cAMP formation after 20 mins by HTRF assay; type: functional, cell-based
[5] = biological target: T1, Metabotropic glutamate receptor 3; assay: Antagonist activity at human mGlu3 receptor expressed in HEK cells assessed as reversal of DCG-4 inhibited forskolin-stimulated cAMP formation after 20 mins by HTRF assay; type: functional, cell-based
[6] = biological target: T2, Metabotropic glutamate receptor 2; assay: Antagonist activity at human mGlu2 receptor expressed in HEK cells assessed as reversal of DCG-4 inhibited forskolin-stimulated cAMP formation after 20 mins by HTRF assay; type: functional, cell-based

T2 sequence (Q14416 whole entry): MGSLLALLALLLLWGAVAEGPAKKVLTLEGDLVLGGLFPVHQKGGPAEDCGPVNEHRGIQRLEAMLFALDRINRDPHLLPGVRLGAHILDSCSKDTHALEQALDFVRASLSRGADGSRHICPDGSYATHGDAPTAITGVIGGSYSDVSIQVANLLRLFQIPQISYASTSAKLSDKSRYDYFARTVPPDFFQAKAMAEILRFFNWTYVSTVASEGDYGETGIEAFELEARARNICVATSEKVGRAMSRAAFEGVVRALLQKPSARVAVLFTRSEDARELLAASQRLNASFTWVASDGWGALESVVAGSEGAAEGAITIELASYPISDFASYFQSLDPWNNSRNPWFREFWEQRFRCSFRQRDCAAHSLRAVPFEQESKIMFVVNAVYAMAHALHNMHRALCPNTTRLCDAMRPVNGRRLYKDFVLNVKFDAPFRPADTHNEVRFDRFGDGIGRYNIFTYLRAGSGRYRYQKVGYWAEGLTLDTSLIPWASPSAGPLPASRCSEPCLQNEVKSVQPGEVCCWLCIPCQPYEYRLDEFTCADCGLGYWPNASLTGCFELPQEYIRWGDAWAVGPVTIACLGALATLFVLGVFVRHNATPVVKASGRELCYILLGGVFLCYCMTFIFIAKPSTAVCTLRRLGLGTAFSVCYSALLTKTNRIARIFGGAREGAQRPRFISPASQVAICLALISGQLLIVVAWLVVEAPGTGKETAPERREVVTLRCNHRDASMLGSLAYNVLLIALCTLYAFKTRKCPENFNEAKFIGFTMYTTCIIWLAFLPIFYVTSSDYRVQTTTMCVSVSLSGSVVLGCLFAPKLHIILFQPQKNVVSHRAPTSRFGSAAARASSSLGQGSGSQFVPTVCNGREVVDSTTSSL
T1 sequence (Q14832 whole entry): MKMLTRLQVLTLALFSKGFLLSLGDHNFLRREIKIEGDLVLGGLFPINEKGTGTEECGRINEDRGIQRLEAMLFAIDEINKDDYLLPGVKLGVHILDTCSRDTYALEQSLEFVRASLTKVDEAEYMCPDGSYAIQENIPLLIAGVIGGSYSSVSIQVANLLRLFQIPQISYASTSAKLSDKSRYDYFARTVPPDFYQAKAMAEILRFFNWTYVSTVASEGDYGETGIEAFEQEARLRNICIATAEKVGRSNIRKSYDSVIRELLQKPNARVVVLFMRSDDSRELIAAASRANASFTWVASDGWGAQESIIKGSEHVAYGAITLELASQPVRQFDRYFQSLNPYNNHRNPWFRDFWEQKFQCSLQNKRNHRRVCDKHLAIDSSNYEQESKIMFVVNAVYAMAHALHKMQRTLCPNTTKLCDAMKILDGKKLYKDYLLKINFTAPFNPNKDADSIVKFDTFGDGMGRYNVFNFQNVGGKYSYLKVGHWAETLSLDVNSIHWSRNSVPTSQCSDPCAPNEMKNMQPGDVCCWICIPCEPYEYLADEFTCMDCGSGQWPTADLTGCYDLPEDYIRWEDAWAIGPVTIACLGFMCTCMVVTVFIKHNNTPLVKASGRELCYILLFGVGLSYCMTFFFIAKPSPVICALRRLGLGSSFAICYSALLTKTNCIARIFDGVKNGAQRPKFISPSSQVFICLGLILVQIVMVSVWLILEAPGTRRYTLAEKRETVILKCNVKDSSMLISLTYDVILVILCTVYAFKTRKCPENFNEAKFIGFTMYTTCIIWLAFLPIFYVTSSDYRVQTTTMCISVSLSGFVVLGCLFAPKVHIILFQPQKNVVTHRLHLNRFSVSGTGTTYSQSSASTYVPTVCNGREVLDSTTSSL

SMILES | EC50 [1] [µM] | Ki [2] [µM] | Ki [3] [µM] | EC50 [4] [µM] | IC50 [5] [µM] | IC50 [6] [µM]
N[C@@]1(C(=O)O)C[C@H](NC(=O)c2ccccc2F)[C@H]2[C@H](C(=O)O)[C@H]21 | 0.0051 | 0.00579 | 0.218 | 0.0171 | – | –
N[C@@]1(C(=O)O)C[C@H](NC(=O)c2ccccc2O)[C@H]2[C@H](C(=O)O)[C@H]21 | 0.00017 | 0.00179 | 0.0582 | 0.00744 | – | –
COc1ccccc1C(=O)N[C@H]1C[C@@](N)(C(=O)O)[C@@H]2[C@@H](C(=O)O)[C@@H]21 | 0.00715 | 0.0232 | 0.151 | 0.0265 | – | –
N[C@@]1(C(=O)O)C[C@H](NC(=O)c2ccccc2)[C@H]2[C@H](C(=O)O)[C@H]21 | 0.00496 | 0.00675 | 0.294 | 0.0198 | – | –
N[C@@]1(C(=O)O)C[C@H](NC(=O)c2ccccc2Cl)[C@H]2[C@H](C(=O)O)[C@H]21 | 0.00496 | 0.0274 | 0.391 | 0.0425 | – | –
N[C@H]1C[C@@](N)(C(=O)O)[C@@H]2[C@@H](C(=O)O)[C@@H]21 | – | 0.284 | 4.41 | – | – | –
N[C@@]1(C(=O)O)C[C@H](NC(=O)CCc2ccccc2)[C@H]2[C@H](C(=O)O)[C@H]21 | > 25 | 0.281 | 0.595 | 0.893 | 2.05 | 5.54
N[C@@]1(C(=O)O)C[C@H](NC(=O)c2cccc(F)c2)[C@H]2[C@H](C(=O)O)[C@H]21 | 0.002 | 0.00211 | 0.214 | 0.0181 | – | –
N[C@@]1(C(=O)O)C[C@H](NCc2ccccc2)[C@H]2[C@H](C(=O)O)[C@H]21 | 0.356 | 1.07 | 11.2 | 0.508 | – | –
N[C@@]1(C(=O)O)C[C@H](NC(=O)C2CCCCC2)[C@H]2[C@H](C(=O)O)[C@H]21 | > 25 | 0.757 | 1.52 | 3.39 | 9.99 | 12
N[C@@]1(C(=O)O)C[C@H](NC(=O)c2ccc(O)cc2)[C@H]2[C@H](C(=O)O)[C@H]21 | 0.00212 | 0.00934 | 0.0547 | 0.00632 | – | –
N[C@@]1(C(=O)O)C[C@H](NC(=O)c2ccc(Cl)cc2)[C@H]2[C@H](C(=O)O)[C@H]21 | 0.00515 | 0.00229 | 0.137 | 0.00697 | – | –
N[C@@]1(C(=O)O)C[C@H](NC(=O)c2cccc(O)c2)[C@H]2[C@H](C(=O)O)[C@H]21 | 0.00071 | 0.00227 | 0.0315 | 0.00377 | – | –
COc1ccc(C(=O)N[C@H]2C[C@@](N)(C(=O)O)[C@@H]3[C@@H](C(=O)O)[C@@H]32)cc1 | 0.00244 | 0.00456 | 0.188 | 0.016 | – | –
CC(=O)N[C@H]1C[C@@](N)(C(=O)O)[C@@H]2[C@@H](C(=O)O)[C@@H]21 | – | 0.177 | 0.898 | – | – | –
N[C@@]1(C(=O)O)C[C@H](NC(=O)c2cccc(Cl)c2)[C@H]2[C@H](C(=O)O)[C@H]21 | 0.00082 | 0.00047 | 0.0853 | 0.00837 | – | –
N[C@@]1(C(=O)O)C[C@H](NC(=O)c2ccc(F)cc2)[C@H]2[C@H](C(=O)O)[C@H]21 | 0.0066 | 0.00434 | 0.33 | 0.0191 | – | –
